Data reported in ChEMBL document CHEMBL1201861, “Genomics of Drug Sensitity in Cancer screening data, Wellcome Trust Sanger Institute”.

Legend:
[1] = tested on: CAL-148; experiment: cells; format: functional, cell-based; settings: Homo sapiens
Description: SANGER: Inhibition of human CAL-148 cell growth in a cell viability assay.

[2] = tested on: SW1783; experiment: cells; format: functional, cell-based; settings: Homo sapiens
Description: SANGER: Inhibition of human SW1783 cell growth in a cell viability assay.

[3] = tested on: SNU-387; experiment: cells; format: functional, cell-based; settings: Homo sapiens
Description: SANGER: Inhibition of human SNU-387 cell growth in a cell viability assay.

[4] = tested on: OVCAR-8; experiment: cells; format: functional, cell-based; settings: Homo sapiens;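 note: growth inhibition of human OVCAR-8 cells, read out by a cell viability assay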
Description: SANGER: Inhibition of human OVCAR-8 cell growth in a cell viability assay.

[5] = tested on: CAL-72; experiment: cells; format: functional, cell-based; settings: Homo sapiens;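 note: cell viability assay measuring inhibition of proliferation in the CAL-72 cell line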
Description: SANGER: Inhibition of human CAL-72 cell growth in a cell viability assay.

[6] = tested on: SCLC-21H; experiment: cells; format: functional, cell-based; settings: Homo sapiens;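 note: growth inhibition of cultured human SCLC-21H cells, read out with a cell viability assay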
Description: SANGER: Inhibition of human SCLC-21H cell growth in a cell viability assay.

[7] = tested on: SW-620; experiment: cells; format: functional, cell-based; settings: Homo sapiens;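 note: growth inhibition of human SW-620 cells, measured by a cell viability assay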
Description: SANGER: Inhibition of human SW620 cell growth in a cell viability assay.

[8] = tested on: KYSE-270; experiment: cells; format: functional, cell-based; settings: Homo sapiens;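 note: cell growth inhibition measured with a viability assay in the human KYSE-270 line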
Description: SANGER: Inhibition of human KYSE-270 cell growth in a cell viability assay.

[9] = tested on: MDA-MB-175-VII; experiment: cells; format: functional, cell-based; settings: Homo sapiens
[10] = tested on: IGROV-1; experiment: cells; format: functional, cell-based; settings: Homo sapiens;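 note: reduction of IGROV-1 cell growth, read out with a viability assay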
Description: SANGER: Inhibition of human IGROV-1 cell growth in a cell viability assay.

[11] = tested on: LCLC-103H cell line; experiment: cells; format: functional, cell-based; settings: Homo sapiens
Description: SANGER: Inhibition of human LCLC-103H cell growth in a cell viability assay.

[12] = tested on: ASPC1; experiment: cells; format: functional, cell-based; settings: Homo sapiens;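 note: growth inhibition of AsPC-1 cells, read out with a cell viability assay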
Description: SANGER: Inhibition of human AsPC-1 cell growth in a cell viability assay.

[13] = tested on: SW626; experiment: cells; format: functional, cell-based; settings: Homo sapiens;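 note: growth inhibition of SW626 cells, measured with a cell viability assay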
Description: SANGER: Inhibition of human SW626 cell growth in a cell viability assay.

[14] = tested on: DBTRG-05MG; experiment: cells; format: functional, cell-based; settings: Homo sapiens;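 note: cell viability assay measuring growth inhibition of human DBTRG-05MG cells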
Description: SANGER: Inhibition of human DBTRG-05MG cell growth in a cell viability assay.

[15] = tested on: SW756; experiment: cells; format: functional, cell-based; settings: Homo sapiens;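 note: growth inhibition of human SW756 cells, read out with a cell viability assay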
Description: SANGER: Inhibition of human SW756 cell growth in a cell viability assay.

[16] = tested on: CAL-120; experiment: cells; format: functional, cell-based; settings: Homo sapiens;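 note: cell growth inhibition, read out as cell viability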
Description: SANGER: Inhibition of human CAL-120 cell growth in a cell viability assay.

[17] = tested on: HPAF-II; experiment: cells; format: functional, cell-based; settings: Homo sapiens;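 note: growth inhibition of HPAF-II cells, read out with a cell viability assay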
Description: SANGER: Inhibition of human HPAF-II cell growth in a cell viability assay.

[18] = tested on: EB2; experiment: cells; format: functional, cell-based; settings: Homo sapiens;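 note: growth inhibition of EB2 cells, read out with a cell viability assay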
Description: SANGER: Inhibition of human EB2 cell growth in a cell viability assay.

[19] = tested on: JEG-3; experiment: cells; format: functional, cell-based; settings: Homo sapiens;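 note: growth inhibition of human JEG-3 cells, read out with a cell viability assay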
Description: SANGER: Inhibition of human JEG-3 cell growth in a cell viability assay.

[20] = tested on: NCI-H2170; experiment: cells; format: functional, cell-based; settings: Homo sapiens;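 note: cell viability assay measuring growth inhibition of human NCI-H2170 cancer cells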
Description: SANGER: Inhibition of human NCI-H2170 cell growth in a cell viability assay.

[21] = tested on: TGW; experiment: cells; format: functional, cell-based; settings: Homo sapiens;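 note: growth inhibition of human TGW cells, read out with a cell viability assay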
Description: SANGER: Inhibition of human TGW cell growth in a cell viability assay.

[22] = tested on: A-431; experiment: cells; format: functional, cell-based; settings: Homo sapiens;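 note: growth inhibition of A-431 cells, determined with a cell viability read-out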
Description: SANGER: Inhibition of human A431 cell growth in a cell viability assay.

[23] = tested on: NCI-H322M; experiment: cells; format: functional, cell-based; settings: Homo sapiens;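 note: cell viability assay measuring inhibition of growth of human NCI-H322M cells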
Description: SANGER: Inhibition of human NCI-H322M cell growth in a cell viability assay.

[24] = tested on: SK-MEL-24; experiment: cells; format: functional, cell-based; settings: Homo sapiens;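 note: growth inhibition read out by a cell viability assay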
Description: SANGER: Inhibition of human SK-MEL-24 cell growth in a cell viability assay.

[25] = tested on: HMV-2 cell line; experiment: cells; format: functional, cell-based; settings: Homo sapiens;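 note: growth inhibition of HMV-II cells, read out with a cell viability assay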
Description: SANGER: Inhibition of human HMV-II cell growth in a cell viability assay.

[26] = tested on: OPM-2; experiment: cells; format: functional, cell-based; settings: Homo sapiens;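 note: growth of OPM-2 cells measured with a viability assay, IC50 for suppression of proliferation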
Description: SANGER: Inhibition of human OPM-2 cell growth in a cell viability assay.

[27] = tested on: MG-63; experiment: cells; format: functional, cell-based; settings: Homo sapiens;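 note: growth inhibition of human MG-63 cells, read out with a cell viability assay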
Description: SANGER: Inhibition of human MG-63 cell growth in a cell viability assay.

[28] = tested on: MHH-ES-1; experiment: cells; format: functional, cell-based; settings: Homo sapiens
Description: SANGER: Inhibition of human MHH-ES-1 cell growth in a cell viability assay.

[29] = tested on: NCI-H2052; experiment: cells; format: functional, cell-based; settings: Homo sapiens;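 note: growth inhibition of NCI-H2052 cells, read out with a cell viability assay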
Description: SANGER: Inhibition of human NCI-H2052 cell growth in a cell viability assay.

[30] = tested on: RPMI-2650; experiment: cells; format: functional, cell-based; settings: Homo sapiens
Description: SANGER: Inhibition of human RPMI-2650 cell growth in a cell viability assay.

[31] = tested on: MONO-MAC-6; experiment: cells; format: functional, cell-based; settings: Homo sapiens;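 note: cell viability assay measuring growth inhibition of human MONO-MAC-6 cells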
Description: SANGER: Inhibition of human MONO-MAC-6 cell growth in a cell viability assay.

[32] = tested on: SK-MEL3; experiment: cells; format: functional, cell-based, SK-MEL-3; settings: Homo sapiens;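 note: growth inhibition of human SK-MEL-3 cells, read out with a cell viability assay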
Description: SANGER: Inhibition of human SK-MEL-3 cell growth in a cell viability assay.

[33] = tested on: CAMA-1; experiment: cells; format: functional, cell-based; settings: Homo sapiens;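 note: growth inhibition of CAMA-1 cells, read out with a cell viability assay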
Description: SANGER: Inhibition of human CAMA-1 cell growth in a cell viability assay.

[34] = tested on: BOKU; experiment: cells; format: functional, cell-based; settings: Homo sapiens;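 note: growth inhibition of the human BOKU cell line, read out by a cell viability assay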
Description: SANGER: Inhibition of human BOKU cell growth in a cell viability assay.

[35] = tested on: VMRC-RCZ; experiment: cells; format: functional, cell-based; settings: Homo sapiens
Description: SANGER: Inhibition of human VMRC-RCZ cell growth in a cell viability assay.

[36] = tested on: CAL-85-1; experiment: cells; format: functional, cell-based; settings: Homo sapiens;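 note: growth inhibition of human CAL-85-1 cells, read out with a cell viability assay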
Description: SANGER: Inhibition of human CAL-85-1 cell growth in a cell viability assay.

[37] = tested on: MKN-45; experiment: cells; format: functional, cell-based; settings: Homo sapiens;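 note: growth inhibition of human MKN-45 cells, measured with a cell viability assay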
Description: SANGER: Inhibition of human MKN45 cell growth in a cell viability assay.

[38] = tested on: RD; experiment: cells; format: functional, cell-based; settings: Homo sapiens
Description: SANGER: Inhibition of human RD cell growth in a cell viability assay.

[39] = tested on: UO-31; experiment: cells; format: functional, cell-based; settings: Homo sapiens
Description: SANGER: Inhibition of human U031 cell growth in a cell viability assay.

[40] = tested on: LK-2; experiment: cells; format: functional, cell-based; settings: Homo sapiens;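 note: growth inhibition of LK-2 cells, read out with a viability assay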
Description: SANGER: Inhibition of human LK-2 cell growth in a cell viability assay.

[41] = tested on: HCC1419; experiment: cells; format: functional, cell-based; settings: Homo sapiens;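 note: growth inhibition of human HCC1419 cells, read out as cell viability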
Description: SANGER: Inhibition of human HCC1419 cell growth in a cell viability assay.

[42] = tested on: HT-3; experiment: cells; format: functional, cell-based; settings: Homo sapiens;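 note: growth inhibition measured with a cell viability readout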
Description: SANGER: Inhibition of human HT-3 cell growth in a cell viability assay.

[43] = tested on: NCI-H2009; experiment: cells; format: functional, cell-based; settings: Homo sapiens;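 note: cell viability assay measuring inhibition of NCI-H2009 cell growth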
Description: SANGER: Inhibition of human NCI-H2009 cell growth in a cell viability assay.

[44] = tested on: TE-15; experiment: cells; format: functional, cell-based; settings: Homo sapiens;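 note: cell viability readout of growth inhibition in TE-15 cells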
Description: SANGER: Inhibition of human TE-15 cell growth in a cell viability assay.

[45] = tested on: Hs-578T; experiment: cells; format: functional, cell-based; settings: Homo sapiens
Description: SANGER: Inhibition of human Hs-578-T cell growth in a cell viability assay.

[46] = tested on: COR-L105; experiment: cells; format: functional, cell-based; settings: Homo sapiens
Description: SANGER: Inhibition of human COR-L105 cell growth in a cell viability assay.

[47] = tested on: HT-1376; experiment: cells; format: functional, cell-based; settings: Homo sapiens
Description: SANGER: Inhibition of human HT-1376 cell growth in a cell viability assay.

[48] = tested on: LOUCY; experiment: cells; format: functional, cell-based; settings: Homo sapiens;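 note: growth inhibition of human LOUCY cells, read out with a cell viability assay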
Description: SANGER: Inhibition of human LOUCY cell growth in a cell viability assay.

[49] = tested on: RPMI 8402; experiment: SANGER: Inhibition of human RPMI-8402 cell growth in a cell viability assay.; format: functional, cell-based
[50] = tested on: LB647-SCLC; experiment: cells; format: functional, cell-based; settings: Homo sapiens;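 note: cell growth inhibition, read out by a viability assay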
Description: SANGER: Inhibition of human LB647-SCLC cell growth in a cell viability assay.

[51] = tested on: U2OS; experiment: cells; format: functional, cell-based, U-2-OS; settings: Homo sapiens;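 note: growth inhibition of human U-2-OS cells, determined with a cell viability assay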
Description: SANGER: Inhibition of human U-2-OS cell growth in a cell viability assay.

[52] = tested on: Huh-7; experiment: cells; format: functional, cell-based; settings: Homo sapiens;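 note: HuH-7 cell growth inhibition, read out with a cell viability assay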
Description: SANGER: Inhibition of human HuH-7 cell growth in a cell viability assay.

[53] = tested on: EVSA-T; experiment: cells; format: functional, cell-based; settings: Homo sapiens;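 note: growth inhibition of EVSA-T cells, read out with a cell viability assay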
Description: SANGER: Inhibition of human EVSA-T cell growth in a cell viability assay.

[54] = tested on: SAS; experiment: cells; format: functional, cell-based; settings: Homo sapiens;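 note: growth inhibition of SAS cells, read out with a cell viability assay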
Description: SANGER: Inhibition of human SAS cell growth in a cell viability assay.

[55] = tested on: 23132-87; experiment: cells; format: functional, cell-based; settings: Homo sapiens
Description: SANGER: Inhibition of human 23132-87 cell growth in a cell viability assay.

[56] = tested on: CAL-12T; experiment: cells; format: functional, cell-based, Homo sapiens; settings: Homo sapiens, CAL-12T;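 note: growth inhibition of human CAL-12T cells, read out with a cell viability assay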
Description: SANGER: Inhibition of human CAL-12T cell growth in a cell viability assay.

[57] = tested on: CHL-1; experiment: cells; format: functional, cell-based; settings: Homo sapiens;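 note: cell growth inhibition, read out with a cell viability assay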
Description: SANGER: Inhibition of human CHL-1 cell growth in a cell viability assay.

[58] = tested on: KYSE-450; experiment: cells; format: functional, cell-based; settings: Homo sapiens;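 note: cell growth inhibition measured by a viability assay in human KYSE-450 cells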
Description: SANGER: Inhibition of human KYSE-450 cell growth in a cell viability assay.

[59] = tested on: SBC-5; experiment: cells; format: functional, cell-based; settings: Homo sapiens;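 note: cell viability assay read-out, IC50 is the concentration that inhibits growth of the cells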
Description: SANGER: Inhibition of human SBC-5 cell growth in a cell viability assay.

[60] = tested on: TCC-SUP; experiment: cells; format: functional, cell-based; settings: Homo sapiens;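 note: growth inhibition of TCC-SUP cells, read out with a cell viability assay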
Description: SANGER: Inhibition of human TCCSUP cell growth in a cell viability assay.

[61] = tested on: SNU-449; experiment: cells; format: functional, cell-based; settings: Homo sapiens
Description: SANGER: Inhibition of human SNU-449 cell growth in a cell viability assay.

[62] = tested on: IST-SL2; experiment: cells; format: functional, cell-based; settings: Homo sapiens;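 note: growth inhibition of human IST-SL2 cells, read out by a cell viability assay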
Description: SANGER: Inhibition of human IST-SL2 cell growth in a cell viability assay.

[63] = tested on: EHEB; experiment: cells; format: functional, cell-based; settings: Homo sapiens;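 note: growth inhibition of human EHEB cells, read out with a cell viability assay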
Description: SANGER: Inhibition of human EHEB cell growth in a cell viability assay.

Structure (SMILES): CC(O)(CS(=O)(=O)c1ccc(F)cc1)C(=O)Nc1ccc(C#N)c(C(F)(F)F)c1 (stereo unspecified) [BICALUTAMIDE]
- IC50 [1]: > 1020 nM
- IC50 [2]: > 1020 nM
- IC50 [3]: > 1020 nM
- IC50 [4]: > 1020 nM
- IC50 [5]: > 1020 nM
- IC50 [6]: > 1020 nM
- IC50 [7]: > 1020 nM
- IC50 [8]: > 1020 nM
- IC50 [9]: > 1020 nM
- IC50 [10]: > 1020 nM
- IC50 [11]: > 1020 nM
- IC50 [12]: > 1020 nM
- IC50 [13]: > 1020 nM
- IC50 [14]: > 1020 nM
- IC50 [15]: > 1020 nM
- IC50 [16]: > 1020 nM
- IC50 [17]: > 1020 nM
- IC50 [18]: > 1020 nM
- IC50 [19]: > 1020 nM
- IC50 [20]: > 1020 nM
- IC50 [21]: > 1020 nM
- IC50 [22]: > 1020 nM
- IC50 [23]: > 1020 nM
- IC50 [24]: > 1020 nM
- IC50 [25]: > 1020 nM
- IC50 [26]: > 1020 nM
- IC50 [27]: > 1020 nM
- IC50 [28]: > 1020 nM
- IC50 [29]: > 1020 nM
- IC50 [30]: > 1020 nM
- IC50 [31]: > 1020 nM
- IC50 [32]: > 1020 nM
- IC50 [33]: > 1020 nM
- IC50 [34]: > 1020 nM
- IC50 [35]: > 1020 nM
- IC50 [36]: > 1020 nM
- IC50 [37]: > 1020 nM
- IC50 [38]: > 1020 nM
- IC50 [39]: > 1020 nM
- IC50 [40]: > 1020 nM
- IC50 [41]: > 1020 nM
- IC50 [42]: 731 nM
- IC50 [43]: > 1020 nM
- IC50 [44]: > 1020 nM
- IC50 [45]: > 1020 nM
- IC50 [46]: > 1020 nM
- IC50 [47]: > 1020 nM
- IC50 [48]: > 1020 nM
- IC50 [49]: > 1020 nM
- IC50 [50]: > 1020 nM
- IC50 [51]: > 1020 nM
- IC50 [52]: > 1020 nM
- IC50 [53]: > 1020 nM
- IC50 [54]: > 1020 nM
- IC50 [55]: > 1020 nM
- IC50 [56]: > 1020 nM
- IC50 [57]: > 1020 nM
- IC50 [58]: > 1020 nM
- IC50 [59]: > 1020 nM
- IC50 [60]: > 1020 nM
- IC50 [61]: > 1020 nM
- IC50 [62]: > 1020 nM
- IC50 [63]: > 1020 nM

Structure (SMILES): CCNC(=O)c1noc(-c2cc(C(C)C)c(O)cc2O)c1-c1ccc(CN2CCOCC2)cc1 [LUMINESPIB]
- IC50 [1]: 243 nM
- IC50 [2]: 5.91 nM
- IC50 [3]: 92.2 nM
- IC50 [4]: 32.8 nM
- IC50 [5]: 166 nM
- IC50 [6]: > 256 nM
- IC50 [7]: 19.2 nM
- IC50 [8]: 10.6 nM
- IC50 [9]: > 256 nM
- IC50 [10]: 8.14 nM
- IC50 [11]: 4.3 nM
- IC50 [12]: > 256 nM
- IC50 [13]: 21.2 nM
- IC50 [14]: 29.6 nM
- IC50 [15]: 41.6 nM
- IC50 [16]: 42.4 nM
- IC50 [17]: > 256 nM
- IC50 [18]: 72.9 nM
- IC50 [19]: 95.1 nM
- IC50 [20]: 163 nM
- IC50 [21]: 165 nM
- IC50 [22]: 6.07 nM
- IC50 [23]: > 256 nM
- IC50 [24]: 42.8 nM
- IC50 [25]: 4.49 nM
- IC50 [26]: > 256 nM
- IC50 [27]: 18.7 nM
- IC50 [28]: 12.6 nM
- IC50 [29]: 104 nM
- IC50 [30]: 14.3 nM
- IC50 [31]: 38.9 nM
- IC50 [32]: 48 nM
- IC50 [33]: 63 nM
- IC50 [34]: 66.7 nM
- IC50 [35]: 16.5 nM
- IC50 [36]: 11.9 nM
- IC50 [37]: 206 nM
- IC50 [38]: 26.6 nM
- IC50 [39]: 47.7 nM
- IC50 [40]: 102 nM
- IC50 [41]: 95.4 nM
- IC50 [42]: > 256 nM
- IC50 [43]: 27.6 nM
- IC50 [44]: 13.4 nM
- IC50 [45]: > 256 nM
- IC50 [46]: 19.1 nM
- IC50 [47]: 98.6 nM
- IC50 [48]: 5.05 nM
- IC50 [49]: > 256 nM
- IC50 [50]: 240 nM
- IC50 [51]: 39.4 nM
- IC50 [52]: 70.3 nM
- IC50 [53]: 92.7 nM
- IC50 [54]: 92.1 nM
- IC50 [55]: 105 nM
- IC50 [56]: 9.22 nM
- IC50 [57]: 41.7 nM
- IC50 [58]: 13.5 nM
- IC50 [59]: 91.9 nM
- IC50 [60]: > 256 nM
- IC50 [61]: 20.3 nM
- IC50 [62]: 57.4 nM
- IC50 [63]: 25.6 nM
